Assay results taken from patent publication US20250171437A1 (Agios Pharmaceuticals,Inc., priority 2022, published 2025).

What follows are compounds tested against T1, human PAH with the R408W mutation (A375 R408W cells) (Homo sapiens, UniProt P00439, R408W) (assay: Cell Based Phenylalanine Flux Assay). Details: A375 R408W cells; 24 hrs with compound, then 20 μM sepiapterin and 800 μM 13C9,15N-Phenylalanine for 4 hours; 13C-Tyrosine by LC-MS; average where tested multiple times.
T1 construct: expressed in transfected cells
T1 sequence (P00439 1-452 R408W): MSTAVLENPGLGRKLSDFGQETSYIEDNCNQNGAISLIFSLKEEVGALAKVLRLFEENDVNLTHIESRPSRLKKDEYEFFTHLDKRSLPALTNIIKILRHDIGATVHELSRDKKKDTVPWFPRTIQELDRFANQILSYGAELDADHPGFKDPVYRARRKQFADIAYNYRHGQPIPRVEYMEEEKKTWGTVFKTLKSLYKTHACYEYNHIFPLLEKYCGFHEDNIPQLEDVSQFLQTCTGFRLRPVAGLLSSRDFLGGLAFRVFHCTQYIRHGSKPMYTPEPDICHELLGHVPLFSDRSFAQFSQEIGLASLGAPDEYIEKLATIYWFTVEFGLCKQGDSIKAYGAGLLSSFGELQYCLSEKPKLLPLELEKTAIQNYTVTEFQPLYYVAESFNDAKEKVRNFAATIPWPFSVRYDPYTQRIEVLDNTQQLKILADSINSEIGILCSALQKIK
Procedure, shortened: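 A375 cells stably expressing lentiviral human PAH R408W were treated with compounds (10-point 2-fold dilutions, 0.5% DMSO, duplicate) for 24 h at 37 °C. Then 20 μM sepiapterin and 800 μM 13C9,15N-Phe were added for 4 h; media 13C-Tyr was measured by LC-MS to give AC50.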

Row | Compound | AC50 [µM]
1 | CC(C)(O)c1nc(C(F)F)c(C(=O)N2CCc3[nH]cnc3[C@@H]2c2nc3ccccc3o2)o1 [Example 469, (R)-(4-(benzo[d]oxazol-2-yl)-6,7-dihydro-1H-imidazo[4,5-c]pyridin-5(4H)-yl)(4-(difluoromethyl)-2-(2-hydroxypropan-2-yl)oxazol-5-yl)methanone] | 1 to 5
2 | O=C(c1nnc(-c2ccn(C(F)F)n2)o1)N1CCc2[nH]cnc2[C@@H]1c1nc2cc(F)ccc2o1 [Example 114, (R)-(5-(1-(difluoromethyl)-1H-pyrazol-3-yl)-1,3,4-oxadiazol-2-yl)(4-(5-fluorobenzo[d]oxazol-2-yl)-6,7-dihydro-1H-imidazo[4,5-c]pyridin-5(4H)-yl)methanone] | 1 to 5
3 | O=C(CC1CC1)N1CCc2[nH]cnc2[C@H]1c1nc2cc(F)ccc2o1 [Example 37, (S)-2-cyclopropyl-1-(4-(5-fluorobenzo[d]oxazol-2-yl)-6,7-dihydro-1H-imidazo[4,5-c]pyridin-5(4H)-yl)ethanone] | 1 to 5
4 | CC(O)c1nc(Cl)c(C(=O)N2CCc3[nH]cnc3[C@H]2c2nc3cc(F)ccc3o2)o1 (single isomer, unassigned) [Example 236] | 0.5 to 1
5 | O=C(c1nnc(-c2ccccn2)o1)N1CCc2[nH]cnc2[C@@H]1c1nc2c(F)c(F)ccc2o1 [Example 630, (R)-(4-(4,5-difluorobenzo[d]oxazol-2-yl)-6,7-dihydro-1H-imidazo[4,5-c]pyridin-5(4H)-yl)(5-(pyridin-2-yl)-1,3,4-oxadiazol-2-yl)methanone] | 1 to 5
6 | O=C(c1nnc(-c2c(F)cccc2F)o1)N1CCc2[nH]cnc2[C@H]1c1nc2cc(F)ccc2o1 [Example 25, (S)-(5-(2,6-difluorophenyl)-1,3,4-oxadiazol-2-yl)(4-(5-fluorobenzo[d]oxazol-2-yl)-6,7-dihydro-1H-imidazo[4,5-c]pyridin-5(4H)-yl)methanone] | ≤ 0.5
7 | O=C(c1ccnn1C(F)(F)F)N1Cc2[nH]cnc2[C@H]1c1nc2ccccc2o1 [Example 953, (S)-(4-(benzo[d]oxazol-2-yl)-4,6-dihydropyrrolo[3,4-d]imidazol-5(1H)-yl)(1-(trifluoromethyl)-1H-pyrazol-5-yl)methanone] | 1 to 5
8 | CC(C)(O)c1nc(C(F)(F)F)c(C(=O)N2CCc3[nH]cnc3[C@@H]2c2nc3ccc(F)cc3o2)o1 [Example 256, (R)-(4-(6-fluorobenzo[d]oxazol-2-yl)-6,7-dihydro-1H-imidazo[4,5-c]pyridin-5(4H)-yl)(2-(2-hydroxypropan-2-yl)-4-(trifluoromethyl)oxazol-5-yl)methanone] | 1 to 5
9 | (R)-(3-chloro-1-methyl-1H-1,2,4-triazol-5-yl)(4-(6-fluorobenzo[d]oxazol-2-yl)-6,7-dihydro-1H-imidazo[4,5-c]pyridin-5(4H)-yl)methanone [Example 344] | 1 to 5
10 | COc1ccc2oc([C@H]3c4nc[nH]c4CCN3C(=O)c3ccnn3C(F)F)nc2c1 [Example 552, (R)-(1-(difluoromethyl)-1H-pyrazol-5-yl)(4-(5-methoxybenzo[d]oxazol-2-yl)-6,7-dihydro-1H-imidazo[4,5-c]pyridin-5(4H)-yl)methanone] | 1 to 5
11 | Cc1ccc2nc([C@@H]3c4nc[nH]c4CCN3C(=O)c3nnc(-c4cc[nH]n4)o3)oc2c1 [Example 359, (S)-(5-(1H-pyrazol-3-yl)-1,3,4-oxadiazol-2-yl)(4-(6-methylbenzo[d]oxazol-2-yl)-6,7-dihydro-1H-imidazo[4,5-c]pyridin-5(4H)-yl)methanone] | 0.5 to 1
12 | CC(C)(C#N)c1nc(C(F)F)c(C(=O)N2CCc3[nH]cnc3[C@H]2c2nc3cc(F)ccc3o2)o1 [Example 159, (S)-2-(4-(difluoromethyl)-5-(4-(5-fluorobenzo[d]oxazol-2-yl)-4,5,6,7-tetrahydro-1H-imidazo[4,5-c]pyridine-5-carbonyl)oxazol-2-yl)-2-methylpropanenitrile] | ≤ 0.5
13 | Cn1nc(C(F)F)nc1C(=O)N1CCc2[nH]cnc2[C@H]1c1nc2c(F)ccc(F)c2o1 [Example 486, (S)-(4-(4,7-difluorobenzo[d]oxazol-2-yl)-6,7-dihydro-1H-imidazo[4,5-c]pyridin-5(4H)-yl)(3-(difluoromethyl)-1-methyl-1H-1,2,4-triazol-5-yl)methanone] | 0.5 to 1
14 | CC(C)(O)c1nc(C(F)F)c(C(=O)N2Cc3[nH]cnc3[C@H]2c2nc3ccccc3o2)o1 [Example 947, (S)-(4-(benzo[d]oxazol-2-yl)-4,6-dihydropyrrolo[3,4-d]imidazol-5(1H)-yl)(4-(difluoromethyl)-2-(2-hydroxypropan-2-yl)oxazol-5-yl)methanone] | ≥ 5
15 | O=C(c1ocnc1C(F)F)N1CCc2[nH]cnc2[C@@H]1c1nc2cc(Br)cc(F)c2o1 [Example 574, (R)-(4-(5-bromo-7-fluorobenzo[d]oxazol-2-yl)-6,7-dihydro-1H-imidazo[4,5-c]pyridin-5(4H)-yl)(4-(difluoromethyl)oxazol-5-yl)methanone] | ≤ 0.5
16 | Cn1ccc(-c2nc(C(F)F)c(C(=O)N3CCc4[nH]cnc4[C@H]3c3nc4cc(F)ccc4o3)o2)n1 [Example 411, (S)-(4-(difluoromethyl)-2-(1-methyl-1H-pyrazol-3-yl)oxazol-5-yl)(4-(5-fluorobenzo[d]oxazol-2-yl)-6,7-dihydro-1H-imidazo[4,5-c]pyridin-5(4H)-yl)methanone] | ≤ 0.5
17 | Cc1cc(C(=O)N2CCc3[nH]cnc3[C@H]2c2nc3cccc(C)c3o2)n(C)n1 [Example 781, (S)-(1,3-dimethyl-1H-pyrazol-5-yl)(4-(7-methylbenzo[d]oxazol-2-yl)-6,7-dihydro-1H-imidazo[4,5-c]pyridin-5(4H)-yl)methanone] | ≤ 0.5
18 | COc1cccc2nc([C@@H]3c4nc[nH]c4CCN3C(=O)c3ccnn3C)oc12 [Example 749, (S)-(4-(7-methoxybenzo[d]oxazol-2-yl)-6,7-dihydro-1H-imidazo[4,5-c]pyridin-5(4H)-yl)(1-methyl-1H-pyrazol-5-yl)methanone] | ≤ 0.5

Same assay, conditions: A375 cells expressing R408W PAH; 24 hrs with compound, then 20 μM sepiapterin and 800 μM 13C9,15N-Phenylalanine for 4 hours; 13C-Tyrosine by LC-MS; average where tested multiple times

Row | Compound | AC50 [µM]
19 | O=C(c1nnc(-c2cn[nH]c2)o1)N1CCc2[nH]cnc2C1c1nc2cc(F)ccc2o1 (stereo not shown) | 1 to 5
20 | CC(C)(O)c1cc(C(=O)N2CCc3[nH]cnc3C2c2nc3cccc(F)c3o2)on1 (stereo not shown) | 1 to 5
21 | CNC(C)(C)c1nc(C)c(C(=O)N2CCc3[nH]cnc3C2c2nc3cc(F)ccc3o2)o1 (stereo not shown) | 1 to 5
22 | O=C(CCc1cncs1)N1CCc2[nH]cnc2C1c1nc2cc(F)ccc2o1 (stereo not shown) | 1 to 5
23 | CC(C)n1nccc1C(=O)N1CCc2[nH]cnc2C1c1nc2cccc(F)c2o1 (stereo not shown) | 1 to 5
24 | Cc1nnc(C(=O)N2CCc3[nH]cnc3C2c2nc3cc(F)ccc3o2)o1 (stereo not shown) | ≥ 5
25 | Cc1nc(C(=O)N2CCc3[nH]cnc3C2c2nc3c(F)ccc(F)c3o2)n(C)n1 (stereo not shown) | 1 to 5
26 | CC(C)(O)c1nc(Br)c(C(=O)N2CCc3[nH]cnc3C2c2nc3cc(F)ccc3o2)s1 (stereo not shown) | 1 to 5
27 | O=C(c1cnco1)N1CCc2[nH]cnc2C1c1nc2c(F)c(F)ccc2o1 (stereo not shown) | 1 to 5
28 | Cc1ccc2oc(C3c4nc[nH]c4CCN3C(=O)c3cnco3)nc2c1 (stereo not shown) | ≥ 5
29 | CNc1ccc2c(C(=O)N3CCc4[nH]cnc4C3c3nc4cc(F)ccc4o3)cnn2c1 (stereo not shown) | ≥ 5
30 | O=C(c1nnc(-c2cnn(C(F)F)c2)o1)N1CCc2[nH]cnc2C1c1nc2cccc(C(F)(F)F)c2o1 (stereo not shown) | 1 to 5
31 | Cn1ncnc1C(=O)N1CCc2[nH]cnc2C1c1nc2c(F)ccc(F)c2o1 (stereo not shown) | 1 to 5
